Numbers after ± are expanded uncertainties.
Experiment: xn = mol fraction of the nth substance listed
Conditions: 100 kPa, Liquid; for viscosity: Falling or rolling sphere viscometry; for mass density: Vibrating tube method

## CCCCCCCCCCC [undecane] + CCCCO
283.15 K, x1 = 0.1007
  viscosity: 3.124 ± 0.04 mPa·s
  mass density: 801.8 ± 1.6 kg/m3
283.15 K, x1 = 0.2004
  viscosity: 2.611 ± 0.033 mPa·s
  mass density: 790.28 ± 1.6 kg/m3
283.15 K, x1 = 0.299
  viscosity: 2.24 ± 0.029 mPa·s
  mass density: 781.12 ± 1.6 kg/m3
283.15 K, x1 = 0.3981
  viscosity: 1.939 ± 0.025 mPa·s
  mass density: 773.6 ± 1.6 kg/m3
283.15 K, x1 = 0.5006
  viscosity: 1.722 ± 0.022 mPa·s
  mass density: 767.02 ± 1.5 kg/m3
283.15 K, x1 = 0.5964
  viscosity: 1.582 ± 0.02 mPa·s
  mass density: 761.98 ± 1.5 kg/m3
283.15 K, x1 = 0.6982
  viscosity: 1.471 ± 0.019 mPa·s
  mass density: 757.32 ± 1.5 kg/m3
283.15 K, x1 = 0.7979
  viscosity: 1.416 ± 0.019 mPa·s
  mass density: 753.51 ± 1.5 kg/m3
283.15 K, x1 = 0.9
  viscosity: 1.385 ± 0.018 mPa·s
  mass density: 750.22 ± 1.5 kg/m3
283.15 K, x1 = 1
  viscosity: 1.371 ± 0.018 mPa·s
  mass density: 747.78 ± 1.5 kg/m3
288.15 K, x1 = 0.1007
  viscosity: 2.731 ± 0.035 mPa·s
  mass density: 798.03 ± 1.6 kg/m3
288.15 K, x1 = 0.2004
  viscosity: 2.294 ± 0.029 mPa·s
  mass density: 786.48 ± 1.6 kg/m3
288.15 K, x1 = 0.299
  viscosity: 1.978 ± 0.025 mPa·s
  mass density: 777.31 ± 1.6 kg/m3
288.15 K, x1 = 0.3981
  viscosity: 1.723 ± 0.022 mPa·s
  mass density: 769.79 ± 1.6 kg/m3
288.15 K, x1 = 0.5006
  viscosity: 1.541 ± 0.02 mPa·s
  mass density: 763.23 ± 1.5 kg/m3
288.15 K, x1 = 0.5964
  viscosity: 1.425 ± 0.018 mPa·s
  mass density: 758.18 ± 1.5 kg/m3
288.15 K, x1 = 0.6982
  viscosity: 1.329 ± 0.017 mPa·s
  mass density: 753.56 ± 1.5 kg/m3
288.15 K, x1 = 0.7979
  viscosity: 1.287 ± 0.017 mPa·s
  mass density: 749.76 ± 1.5 kg/m3
288.15 K, x1 = 0.9
  viscosity: 1.26 ± 0.017 mPa·s
  mass density: 746.49 ± 1.5 kg/m3
288.15 K, x1 = 1
  viscosity: 1.249 ± 0.017 mPa·s
  mass density: 744.06 ± 1.5 kg/m3
293.15 K, x1 = 0.1007
  viscosity: 2.398 ± 0.03 mPa·s
  mass density: 794.24 ± 1.6 kg/m3
293.15 K, x1 = 0.2004
  viscosity: 2.025 ± 0.026 mPa·s
  mass density: 782.67 ± 1.6 kg/m3
293.15 K, x1 = 0.299
  viscosity: 1.755 ± 0.022 mPa·s
  mass density: 773.49 ± 1.6 kg/m3
293.15 K, x1 = 0.3981
  viscosity: 1.54 ± 0.02 mPa·s
  mass density: 765.96 ± 1.5 kg/m3
293.15 K, x1 = 0.5006
  viscosity: 1.387 ± 0.018 mPa·s
  mass density: 759.41 ± 1.5 kg/m3
293.15 K, x1 = 0.5964
  viscosity: 1.29 ± 0.017 mPa·s
  mass density: 754.38 ± 1.5 kg/m3
293.15 K, x1 = 0.6982
  viscosity: 1.212 ± 0.016 mPa·s
  mass density: 749.77 ± 1.5 kg/m3
293.15 K, x1 = 0.7979
  viscosity: 1.176 ± 0.015 mPa·s
  mass density: 746 ± 1.5 kg/m3
293.15 K, x1 = 0.9
  viscosity: 1.152 ± 0.015 mPa·s
  mass density: 742.75 ± 1.5 kg/m3
293.15 K, x1 = 1
  viscosity: 1.145 ± 0.015 mPa·s
  mass density: 740.35 ± 1.5 kg/m3
298.15 K, x1 = 0.1007
  viscosity: 2.115 ± 0.027 mPa·s
  mass density: 790.42 ± 1.6 kg/m3
298.15 K, x1 = 0.2004
  viscosity: 1.795 ± 0.023 mPa·s
  mass density: 778.83 ± 1.6 kg/m3
298.15 K, x1 = 0.299
  viscosity: 1.564 ± 0.02 mPa·s
  mass density: 769.63 ± 1.6 kg/m3
298.15 K, x1 = 0.3981
  viscosity: 1.383 ± 0.018 mPa·s
  mass density: 762.11 ± 1.5 kg/m3
298.15 K, x1 = 0.5006
  viscosity: 1.254 ± 0.016 mPa·s
  mass density: 755.57 ± 1.5 kg/m3
298.15 K, x1 = 0.5964
  viscosity: 1.173 ± 0.015 mPa·s
  mass density: 750.55 ± 1.5 kg/m3
298.15 K, x1 = 0.6982
  viscosity: 1.108 ± 0.014 mPa·s
  mass density: 745.97 ± 1.5 kg/m3
298.15 K, x1 = 0.7979
  viscosity: 1.077 ± 0.014 mPa·s
  mass density: 742.22 ± 1.5 kg/m3
298.15 K, x1 = 0.9
  viscosity: 1.058 ± 0.014 mPa·s
  mass density: 739 ± 1.5 kg/m3
298.15 K, x1 = 1
  viscosity: 1.062 ± 0.014 mPa·s
  mass density: 736.64 ± 1.5 kg/m3
303.15 K, x1 = 0.1007
  viscosity: 1.871 ± 0.024 mPa·s
  mass density: 786.57 ± 1.6 kg/m3
303.15 K, x1 = 0.2004
  viscosity: 1.595 ± 0.02 mPa·s
  mass density: 774.95 ± 1.6 kg/m3
303.15 K, x1 = 0.299
  viscosity: 1.392 ± 0.018 mPa·s
  mass density: 765.75 ± 1.5 kg/m3
303.15 K, x1 = 0.3981
  viscosity: 1.248 ± 0.016 mPa·s
  mass density: 758.22 ± 1.5 kg/m3
303.15 K, x1 = 0.5006
  viscosity: 1.139 ± 0.015 mPa·s
  mass density: 751.7 ± 1.5 kg/m3
303.15 K, x1 = 0.5964
  viscosity: 1.071 ± 0.014 mPa·s
  mass density: 746.69 ± 1.5 kg/m3
303.15 K, x1 = 0.6982
  viscosity: 1.016 ± 0.013 mPa·s
  mass density: 742.14 ± 1.5 kg/m3
303.15 K, x1 = 0.7979
  viscosity: 0.991 ± 0.013 mPa·s
  mass density: 738.42 ± 1.5 kg/m3
303.15 K, x1 = 0.9
  viscosity: 0.975 ± 0.013 mPa·s
  mass density: 735.23 ± 1.5 kg/m3
303.15 K, x1 = 1
  viscosity: 0.982 ± 0.013 mPa·s
  mass density: 732.93 ± 1.5 kg/m3
308.15 K, x1 = 0.1007
  viscosity: 1.663 ± 0.021 mPa·s
  mass density: 782.69 ± 1.6 kg/m3
308.15 K, x1 = 0.2004
  viscosity: 1.426 ± 0.018 mPa·s
  mass density: 771.05 ± 1.6 kg/m3
308.15 K, x1 = 0.299
  viscosity: 1.253 ± 0.016 mPa·s
  mass density: 761.84 ± 1.5 kg/m3
308.15 K, x1 = 0.3981
  viscosity: 1.13 ± 0.014 mPa·s
  mass density: 754.31 ± 1.5 kg/m3
308.15 K, x1 = 0.5006
  viscosity: 1.038 ± 0.013 mPa·s
  mass density: 747.8 ± 1.5 kg/m3
308.15 K, x1 = 0.5964
  viscosity: 0.979 ± 0.013 mPa·s
  mass density: 742.82 ± 1.5 kg/m3
308.15 K, x1 = 0.6982
  viscosity: 0.936 ± 0.012 mPa·s
  mass density: 738.3 ± 1.5 kg/m3
308.15 K, x1 = 0.7979
  viscosity: 0.915 ± 0.012 mPa·s
  mass density: 734.6 ± 1.5 kg/m3
308.15 K, x1 = 0.9
  viscosity: 0.902 ± 0.012 mPa·s
  mass density: 731.45 ± 1.5 kg/m3
308.15 K, x1 = 1
  viscosity: 0.91 ± 0.012 mPa·s
  mass density: 729.23 ± 1.5 kg/m3
313.15 K, x1 = 0.1007
  viscosity: 1.483 ± 0.019 mPa·s
  mass density: 778.77 ± 1.6 kg/m3
313.15 K, x1 = 0.2004
  viscosity: 1.279 ± 0.016 mPa·s
  mass density: 767.1 ± 1.5 kg/m3
313.15 K, x1 = 0.299
  viscosity: 1.131 ± 0.014 mPa·s
  mass density: 757.88 ± 1.5 kg/m3
313.15 K, x1 = 0.3981
  viscosity: 1.028 ± 0.013 mPa·s
  mass density: 750.36 ± 1.5 kg/m3
313.15 K, x1 = 0.5006
  viscosity: 0.95 ± 0.012 mPa·s
  mass density: 743.87 ± 1.5 kg/m3
313.15 K, x1 = 0.5964
  viscosity: 0.901 ± 0.012 mPa·s
  mass density: 738.91 ± 1.5 kg/m3
313.15 K, x1 = 0.6982
  viscosity: 0.864 ± 0.011 mPa·s
  mass density: 734.42 ± 1.5 kg/m3
313.15 K, x1 = 0.7979
  viscosity: 0.847 ± 0.011 mPa·s
  mass density: 730.76 ± 1.5 kg/m3
313.15 K, x1 = 0.9
  viscosity: 0.837 ± 0.011 mPa·s
  mass density: 727.65 ± 1.5 kg/m3
313.15 K, x1 = 1
  viscosity: 0.847 ± 0.011 mPa·s
  mass density: 725.53 ± 1.5 kg/m3
318.15 K, x1 = 0.1007
  viscosity: 1.326 ± 0.017 mPa·s
  mass density: 774.8 ± 1.6 kg/m3
318.15 K, x1 = 0.2004
  viscosity: 1.152 ± 0.015 mPa·s
  mass density: 763.11 ± 1.5 kg/m3
318.15 K, x1 = 0.299
  viscosity: 1.026 ± 0.013 mPa·s
  mass density: 753.88 ± 1.5 kg/m3
318.15 K, x1 = 0.3981
  viscosity: 0.938 ± 0.012 mPa·s
  mass density: 746.37 ± 1.5 kg/m3
318.15 K, x1 = 0.5006
  viscosity: 0.882 ± 0.011 mPa·s
  mass density: 739.91 ± 1.5 kg/m3
318.15 K, x1 = 0.5964
  viscosity: 0.832 ± 0.011 mPa·s
  mass density: 734.97 ± 1.5 kg/m3
318.15 K, x1 = 0.6982
  viscosity: 0.801 ± 0.01 mPa·s
  mass density: 730.51 ± 1.5 kg/m3
318.15 K, x1 = 0.7979
  viscosity: 0.787 ± 0.01 mPa·s
  mass density: 726.89 ± 1.5 kg/m3
318.15 K, x1 = 0.9
  viscosity: 0.779 ± 0.01 mPa·s
  mass density: 723.83 ± 1.5 kg/m3
318.15 K, x1 = 1
  viscosity: 0.79 ± 0.011 mPa·s
  mass density: 721.82 ± 1.5 kg/m3
323.15 K, x1 = 0.1007
  viscosity: 1.192 ± 0.015 mPa·s
323.15 K, x1 = 0.2004
  viscosity: 1.042 ± 0.013 mPa·s
323.15 K, x1 = 0.299
  viscosity: 0.934 ± 0.012 mPa·s
323.15 K, x1 = 0.3981
  viscosity: 0.858 ± 0.011 mPa·s
323.15 K, x1 = 0.5006
  viscosity: 0.804 ± 0.01 mPa·s
323.15 K, x1 = 0.5964
  viscosity: 0.771 ± 0.01 mPa·s
323.15 K, x1 = 0.6982
  viscosity: 0.749 ± 0.01 mPa·s
323.15 K, x1 = 0.7979
  viscosity: 0.733 ± 0.01 mPa·s
323.15 K, x1 = 0.9
  viscosity: 0.727 ± 0.01 mPa·s
323.15 K, x1 = 1
  viscosity: 0.74 ± 0.01 mPa·s

— the NIST ThermoML archive (doi:10.1021/acs.jced.6b00121)
